Test results from patent EP2669276A1 (Université de Strasbourg, priority 2012, dated 2013).
Several values for one entry are separate records, joined by “and”; a condition that tells them apart may be missing. Equal values may be shown once. Read-outs that look alike come from different tables or passages of the source.

Legend:
hNPFF1 = target: T1, hNPFF1 (Homo sapiens, UniProt Q9GZQ6); experiment: Receptor binding assay with [3H]-FFRFamide on CHO cell membranes expressing SF-hNPFFR1; settings: for Ki / inhibition at 0.5 µM / inhibition at 5 µM: [3H]-FFRF-NH2 radioligand, mean of at least two experiments; for Ki: read-out: Ki NPFF1
T1 construct: The cDNA encoding the full-length human NPFFR1 and human NPFFR2; expressed in transfected cells
T1 sequence (Q9GZQ6 whole entry): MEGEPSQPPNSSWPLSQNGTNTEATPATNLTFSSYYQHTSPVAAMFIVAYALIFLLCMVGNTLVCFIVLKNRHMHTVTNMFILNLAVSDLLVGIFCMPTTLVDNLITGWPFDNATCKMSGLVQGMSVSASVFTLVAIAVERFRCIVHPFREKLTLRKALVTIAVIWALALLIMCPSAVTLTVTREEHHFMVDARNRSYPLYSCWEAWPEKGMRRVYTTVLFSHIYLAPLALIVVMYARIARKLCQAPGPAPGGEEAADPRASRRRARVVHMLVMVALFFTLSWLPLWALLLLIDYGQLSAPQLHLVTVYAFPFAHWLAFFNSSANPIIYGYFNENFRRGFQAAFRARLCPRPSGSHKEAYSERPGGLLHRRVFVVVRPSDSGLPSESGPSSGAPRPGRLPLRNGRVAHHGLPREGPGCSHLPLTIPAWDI
From the text: (§1) The cDNA encoding the full-length human NPFFR1 and human NPFFR2 were subcloned into the pcDNA3 expression vector (Invitrogen, Cergy Pontoise, France) using standard molecular biology methods. A sequence encoding a signal sequence and a Flag epitope was fused to the 5' coding sequence of both hNPFFR1 and hNPFFR2 cDNA according to (Guan et al., 1992) resulting in a SF-hNPFFR1 and SF-hNPFFR2 constructs. These contructs were stably transfected into CHO cells.
(§2) Membranes from CHO cells stably expressing SF-hNPFFR1 or SF-hNPFFR2 were prepared as described (Becker et al., 1999). SF-hNPFFR1 or SF-hNPFFR2 membranes (10µg) were incubated for 30 min at 25 °C in a final volume of 0.5 ml containing 50 mM HEPES pH 7.4, 1 mM CaCl2, 1 mM MgCl2, 0.1% bovine serum albumin, 10 nM and 3 nM [^3H]-FFRFamide (CEA, Paris; specific activity, 13,6 Ci/mmol) for […], respectively and the ligands to be tested. Non-specific binding was determined in presence of 1 µM neuropeptide FF for SF-hNPFFR2 and 1 µM neuropeptide VF for SF -hNPFFR1. Typical total and nonspecific binding were 1200 and 200 dpm, respectively for SF-hNPFFR1 and SF-hNPFFR2. Incubation mixtures were rapidly filtered and washed with 50 mM HEPES pH 7.4, 1 mM CaCl2, 1 mM MgCl2, on 96 wells GF/B unifilter (Perkin Elmer). Unifilter plates where then dryied for 1hr at 65°C. Bound radioactivity was determined by scintillation counting with 30 µl of scintillation cocktail (O-scint, Perkin Elmer) per well on a Topcount scintillation apparatus (Perkin Elmer).

hNPFF2 = target: T2, hNPFF2 (Homo sapiens, UniProt Q9Y5X5); experiment: Receptor binding assay with [3H]-FFRFamide on CHO cell membranes expressing SF-hNPFFR2; settings: for Ki / inhibition at 0.5 µM / inhibition at 5 µM: [3H]-FFRF-NH2 radioligand; for Ki: read-out: Ki NPFF2
T2 construct: The cDNA encoding the full-length human NPFFR1 and human NPFFR2; expressed in transfected cells
T2 sequence (Q9Y5X5 whole entry): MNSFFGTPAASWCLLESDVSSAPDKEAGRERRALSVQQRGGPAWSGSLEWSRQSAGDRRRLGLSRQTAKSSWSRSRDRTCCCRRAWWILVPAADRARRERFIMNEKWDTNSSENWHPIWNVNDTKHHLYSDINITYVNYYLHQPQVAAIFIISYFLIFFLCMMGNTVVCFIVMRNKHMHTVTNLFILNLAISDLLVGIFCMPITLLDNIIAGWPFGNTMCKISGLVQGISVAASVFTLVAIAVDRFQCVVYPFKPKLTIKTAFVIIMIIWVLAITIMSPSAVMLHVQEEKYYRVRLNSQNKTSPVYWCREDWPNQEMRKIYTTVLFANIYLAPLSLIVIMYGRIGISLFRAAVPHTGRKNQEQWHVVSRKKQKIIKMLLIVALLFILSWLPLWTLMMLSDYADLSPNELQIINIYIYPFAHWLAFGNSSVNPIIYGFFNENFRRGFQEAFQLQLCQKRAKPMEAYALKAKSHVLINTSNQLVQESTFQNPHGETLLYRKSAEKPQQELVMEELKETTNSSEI
From the text: as §1, §2

hNPFFR1 [1] = target: T3, hNPFFR1 (Homo sapiens, UniProt Q9GZQ6); experiment: [35S]GTPγS binding measurement on SF-hNPFFR1 membranes; format: biochemical; settings: tested alone, up to 50 µM
T3 construct: The cDNA encoding the full-length human NPFFR1 and human NPFFR2; expressed in transfected cells
T3 sequence (Q9GZQ6 whole entry): as the sequence (Q9GZQ6 whole entry) above
Method: For [^35S]GTPγS binding experiments, SF-hNPFFR1 or SF-hNPFFR2 membrane proteins (5 µg) were incubated for 45 min at 30 °C in a final volume of 0.5 ml containing 20 mM HEPES pH 7.4, 100 mM NaCl, 3 mM MgCl2, 10 µM GDP, 10 µg/ml Saponin, 0.1 nM [^35S]GTPγS and ligands. Non-specific binding was determined in the presence of 10 µM GTPγS. Incubation mixtures were rapidly filtered and washed with 10 mM HEPES pH 7.4, 0,5 M NaCl, 1,5 mM MgCl2, on 96 wells GF/B unifilter (Perkin Elmer). Unifilter plates where then dryied for 1hr at 65°C. Bound radioactivity was determined by scintillation counting with 30 µl of scintillation cocktail (O-scint, Perkin Elmer) per well on a Topcount scintillation apparatus (Perkin Elmer).

hNPFFR1 [2] = target: T3, hNPFFR1; experiment: cAMP measurement (forskolin-stimulated cAMP accumulation) in CHO cells expressing SF-hNPFFR1; format: cell-based
Method: Functional coupling of SF-hNPFFR1 and SF-hNPFFR2 to adenylyl cyclase was assessed by measuring the inhibitory effects of agonist/antagonist and related compounds on forskolin-stimulated cAMP accumulation in CHO cells stably expressing both receptors as previously described (Gicquiaux et al., 2001) with minor modifications. Briefly, 80% confluent CHO cells expressing SF-hNPFFR1 or SF-hNPFFR2 were harvested and seeded in 96-well plates at an initial density of 10,000 cells per well. After 1-2 days of culture (90% confluency), cells were washed with 0.2 ml of PBS (in mM: 137 NaCl, 2.7 KCl, 0.9 CaCl2, 0.5 MgCl2, 6.5 Na2HPO4, 1.5 KH2PO4, pH 7.2), and then incubated at 37°C for 10 min with 0.2 ml assay buffer (in mM: 150 NaCl, 5 KCl, 2.5 CaCl2, 1.2 KH2PO4, 1.2 MgSO4, 25 NaHCO3, 10 HEPES, 10 mg/ml BSA, pH 7.4). […] The reaction was stopped by addition of 0.04 ml volume ice-cold 0.5 M HCl and cells were frozen (-80°C 1 hour) disrupted by sonication and suspensions were centrifuged at 2,000 × g for 15 min. The resulting supernatants were stored at -20°C until determination of cAMP by radioimmunoassay as described (Cailla et al., 1973). For antagonist evaluation, dose response curves of agonists (NPVF and NPFF for hNPFFR1 and hNPFFR2, respectively) were performed in the presence of fixed concentrations of antagonist. […]

[3] = system: Fentanyl-induced hyperalgesia in rats; experiment: Fentanyl-induced hyperalgesia in rats (paw pressure vocalization test); format: in vivo; settings: for fentanyl-induced hyperalgesia / development of fentanyl-induced hyperalgesia: rats, 30 min before fentanyl; for fentanyl-induced hyperalgesia: P < 0.001, Newman-Keuls test
[4] = system: Fentanyl-induced hyperalgesia followed by carrageenan injection in rats; experiment: Fentanyl-induced hyperalgesia followed by carrageenan injection in rats; format: in vivo; settings: 0.5 mg/kg s.c. 30 min before fentanyl at D0, carrageenan at D13, P < 0.001 Newman-Keuls test
[5] = mean of at least two experiments

O=C(N[C@@H](CCCN1CCCCC1)C(=O)NCCc1ccccc1)c1ccccc1-c1ccccc1 [Compound 26, (2S)-N-(2-phenylethyl)-2-[(2-phenylphenyl)formamido]-5-(piperidin-1-yl)pentanamide]
Ki (hNPFF1): 60 nM and 65 nM | affinity for NPFFR1 (hNPFF1; in words): good affinity | Ki (hNPFF2; unit µM printed with the value): > 13 µM | affinity for NPFFR2 (hNPFF2; in words): very low affinity | stimulation of the binding of [35S]GTPgS (hNPFFR1 [1]): did not stimulate | Kb (hNPFFR1 [2]; read-out: pA2 value for hNPFFR1 (converted)): 977 nM | decrease of forskolin-stimulated cAMP accumulation (hNPFFR1 [2]; tested alone, up to 50 µM): did not decrease | in vivo activity after oral administration ([3]; oral, low dose of 1 mg/kg): highly satisfactory in vivo activity | hyperalgesia induced by administration of fentanyl ([3]; rat, single 0.5 mg/kg dose, i.p.): blocks | fentanyl-induced hyperalgesia ([3]; 0.5 mg/kg subcutaneously): completely abolished | fentanyl-induced hyperalgesia ([3]; 3 mg/kg orally): completely abolished | development of fentanyl-induced hyperalgesia ([3]; orally 0.3, 1 and 3 mg/kg): dose-dependently prevented | development of fentanyl-induced hyperalgesia ([3]; subcutaneously 0.05, 0.1 and 0.5 mg/kg): dose-dependently prevented | increase in inflammatory hyperalgesia induced by prior fentanyl injection [4]: completely prevented

O=C(N[C@@H](CCCN1CCC(N2C(=O)Cc3ccccc32)CC1)C(=O)NCCc1ccccc1)c1ccccc1-c1ccccc1 [Compound 37, (2S)-5-[4-(2-oxo-2,3-dihydro-1H-indol-1-yl)piperidin-1-yl]-N-(2-phenylethyl)-2-[(2-phenylphenyl)formamido]pentanamide]
inhibition at 0.5 µM (hNPFF1): 21 ± 6% | inhibition at 5 µM (hNPFF1): 42 ± 3% | inhibition at 0.5 µM (hNPFF2; [5]): 0% | inhibition at 5 µM (hNPFF2; [5]): 45%

CN(CCC[C@H](NC(=O)c1ccccc1-c1ccccc1)C(=O)NCCc1ccccc1)C1CCN(Cc2ccccc2)CC1 [Compound 38, (2S)-5-[(1-benzylpiperidin-4-yl)(methyl)amino]-N-(2-phenylethyl)-2-[(2-phenylphenyl)formamido]pentanamide]
Ki (hNPFF1): 85 ± 20 nM | Ki (hNPFF2; [5]): 0.04 ± 0.023 µM

O=C(N[C@@H](CCCN1CCN(C(=O)c2ccccc2)CC1)C(=O)NCCc1ccccc1)c1ccccc1-c1ccccc1 [Compound 39, (2S)-5-(4-benzoylpiperazin-1-yl)-N-(2-phenylethyl)-2-[(2-phenylphenyl)formamido]pentanamide]
Ki (hNPFF1): 187 ± 9 nM | inhibition at 0.5 µM (hNPFF2; [5]): 0% | inhibition at 5 µM (hNPFF2; [5]): 17%

O=C(N[C@@H](CCCN1CCC(Cc2ccccc2)CC1)C(=O)NCCc1ccccc1)c1ccccc1 [Compound 40, (2S)-5-(4-benzylpiperidin-1-yl)-N-(2-phenylethyl)-2-(phenylformamido)pentanamide]
inhibition at 0.5 µM (hNPFF1): 19 ± 3% | inhibition at 5 µM (hNPFF1): 32 ± 1% | inhibition at 0.5 µM (hNPFF2; [5]): 5 ± 3% | inhibition at 5 µM (hNPFF2; [5]): 19 ± 1%

O=C(N[C@@H](CCCN1CCC(Cc2ccccc2)CC1)C(=O)NCCc1ccccc1)c1ccccc1Cl [Compound 41, (2S)-5-(4-benzylpiperidin-1-yl)-2-[(2-chlorophenyl)formamido]-N-(2-phenylethyl)pentanamide]
inhibition at 0.5 µM (hNPFF1): 0% | inhibition at 5 µM (hNPFF1): 54 ± 3% | inhibition at 0.5 µM (hNPFF2; [5]): 0% | inhibition at 5 µM (hNPFF2; [5]): 41 ± 3%

O=C(N[C@@H](CCCN1CCC(Cc2ccccc2)CC1)C(=O)NCCc1ccccc1)c1ccc2ccccc2n1 [Compound 42, (2S)-5-(4-benzylpiperidin-1-yl)-N-(2-phenylethyl)-2-(quinolin-2-ylformamido)pentanamide]
inhibition at 0.5 µM (hNPFF1): 11 ± 15% | inhibition at 5 µM (hNPFF1): 72 ± 11% | inhibition at 0.5 µM (hNPFF2; [5]): 4 ± 10% | inhibition at 5 µM (hNPFF2; [5]): 47%

O=C(N[C@@H](CCCN1CCC(Cc2ccccc2)CC1)C(=O)NCCc1ccccc1)c1cccc(Cl)c1 [Compound 43, (2S)-5-(4-benzylpiperidin-1-yl)-2-[(3-chlorophenyl)formamido]-N-(2-phenylethyl)pentanamide]
Ki (hNPFF1): 441 ± 80 nM | Ki (hNPFF2; [5]): 0.147 ± 0.002 µM

O=C(NCCc1ccccc1)[C@H](CCCN1CCC(Cc2ccccc2)CC1)NC(=O)C12CC3CC(CC(C3)C1)C2 [Compound 44, (2S)-2-(adamantan-1-ylformamido)-5-(4-benzylpiperidin-1-yl)-N-(2-phenylethyl)pentanamide]
Ki (hNPFF1): 603 ± 139 nM | Ki (hNPFF2; [5]): 0.188 ± 0.006 µM

O=C(C=C(c1ccccc1)c1ccccc1)N[C@@H](CCCN1CCC(Cc2ccccc2)CC1)C(=O)NCCc1ccccc1 [Compound 45, (2S)-5-(4-benzylpiperidin-1-yl)-2-(3,3-diphenylprop-2-enamido)-N-(2-phenylethyl)pentanamide]
inhibition at 0.5 µM (hNPFF1): 10 ± 18% | inhibition at 5 µM (hNPFF1): 12 ± 2% | inhibition at 0.5 µM (hNPFF2; [5]): 23 ± 25% | inhibition at 5 µM (hNPFF2; [5]): 25 ± 19%

O=C(CCCNC(=O)c1ccccc1)N[C@@H](CCCN1CCC(Cc2ccccc2)CC1)C(=O)NCCc1ccccc1 [Compound 46, (2S)-5-(4-benzylpiperidin-1-yl)-N-(2-phenylethyl)-2-[4-(phenylformamido)butanamido]pentanamide]
inhibition at 0.7 µM (hNPFF1; 0.7 µM (footnote e)): 35% | inhibition at 7 µM (hNPFF1; 7 µM (footnote d)): 59% | inhibition at 0.7 µM (hNPFF2; 0.7 µM (footnote e)): 4% | inhibition at 7 µM (hNPFF2; 7 µM (footnote d)): 39%
